The structures appear in SMILES notation.

The subject of one data set is N. europaea Km^r hao-lux. The experiment in a line: Bioluminescence response of N. europaea hao-lux fusion to NH4+. The data set is classed as cell-based, Nitrosomonas europaea. How it is done: The NH4^+ detection limits were determined to be 20 μM at 30 min of exposure and 10 μM at 60 min or 90 min of exposure (threefold increase over background bioluminescence).

Data set [1] in a line: Adsorption isotherms on calcium alginate. It is filed as physicochemical. How it is done: Tracer concentrations were measured using a Waters ion-chromatography system with a series 510 HPLC pump, IC-PAK anion exchange column, and 431 conductance detector (Waters, Cam-bridge, MA) or monitored continuously using fluorescence.
Data set [2] in a line: Model parameters for naphthalene (diffusion, equilibrium constant). It is filed as physicochemical. The text has this:
Biot numbers were on the order of 100. Effectiveness factor calculations using the best-fit first-order reaction rate constant indicate that the beads were limited by the reaction rate and not by internal mass transfer resistance. The good fit obtained using the analytical solution, wherein external and internal mass transfer was assumed negligible, also support the conclusion that mass transfer effects were minimal. The model predicts that the salicylate distribution reaches a steady state within an alginate bead (99% of final) in about 7 minutes. Even assuming that the diffusion coefficient was reduced by an order of magnitude in the alginate matrix, a steady state was reached within 15 min. […] Cell volume estimated at less than 1% probably had little effect on diffusion. The model also predicted that liquid mass transfer resistance would have little effect on reaching steady state. […] A positive 50% error in the measured adsorption coefficient would result in doubling the time required to reach steady state. […] Model parameters have been measured (liquid mass transfer coefficient, pellet void volume, and adsorption coefficients), reported, and estimated. Respective coefficients for naphthalene were […], 9.0×10^−8 cm^2 s^−1 and 8.4 cm^2 s mol^−1 for liquid diffusion, solid diffusion, and Langmuir equilibrium constants. Companion free cell studies are needed to further aid evaluation of free and immobilized kinetics and response.

The subject of a further data set is P. fluorescens HK44. The data set is classed as cell-based, Pseudomonas fluorescens. The text has this: A previously developed PBR system with on-line instrumentation (Webb, 1992; Webb et al., 1991) was used to measure bacterial degradative and bioluminescent activity under conditions mimicking those of the subsurface. The reactor design is detailed in FIG. 21. The PBR was temperature controlled and fitted with metal frits welded to the inlet and outlet to retain and distribute feed to immobilized cultures. An additional inter-cavity insert allowed the installation of filters (e.g., […] inorganic and polymeric) between the packed bed and outlet frit that filtered the effluent for automatic injection into the on-line high-performance liquid chromatography (HPLC) and that produced a uniform resistance to flow that improved the overall distribution to the reactor (Webb, 1992). […] HPLC pumps supplied media to each reactor from pressurized feed reservoirs. All nutrients, including oxygen, entered the reactor dissolved in the liquid phase. Naphthalene and salicylate were detected with an on-line HPLC using a Vydac TP20154 column (Sep/A/Ra/Tions Group, Hesperia, Calif.) with a FL-4 dual-monochromator fluorescent detector (Perkin-Elmer, Norwalk, Conn.). Respective excitation and emission wavelengths for salicylate detection were 290 and 360 nm. The reactor was fitted with an on-line light detector for monitoring bioluminescent activity (Dunbar, 1992) consisting of a glued fiber bundle (Ensign Bickford Optics, Simsbury, Conn.) placed approximately 2.5 cm from the entrance of the reactor. An Oriel Inc. (Stratford, Conn.) 7070 photomultiplier detection system using a Model 77348 photomultiplier tube (radiant sensitivity of […] near 500 nm) were employed.
Mineral salts media (pH 7.2) consisting of MgSO4 7H2O ([…]), NH4NO3 ([…]), trizma™ base ([…]), MgO (1.0×10^−3 g/l), CaCl2 (2.9×10^−4 g/l), FeCl3.6H2O (5.4×10^−4 g/l), ZnSO4.7H2O (1.4×10^−4 g/l), CuSO4 (2.5×10^−5 g/l), […] (6.2×10^−6 g/l), and Na2MoO4.H2O (4.9×10^−5 g/l) were supplied to the reactor with an appropriate carbon source for degradation and bioluminescence studies. Kinetic bacterial studies were phosphate limited and maintained aerobic by con-trolled pressurization of feeds and the reactor.
The HK44 was prepared for immobilization by adding freshly thawed inoculum (frozen at −70° C. until use) to 100 mL of YEPG media which contained glucose (1.0 g/l), polypeptone (2.0 g/l), yeast extract (0.2 g/l), NH4NO3 (0.2 g/l), and tetracycline (14 mg/l). The culture was shaken for 15 hours at 25° C. and then centrifuged at 8000 rpm for 10 minutes. The pellet was then washed with 0.9% NaCl solution three times before immobilization. The concentration of HK44 was enumerated by measuring optical density at 546 nm. The HK44 was immobilized by suspending bacteria in 0.9% NaCl solution and mixing with a low-viscosity alginate (28 g/L) and NaCl (9 g/L) solution in a ratio of 1:2 by volume. Beads were formed by controlled dropwise addition to 0.1 M CaCl2 solution by a syringe needle installed in an air jet controlled by a precision regulator (Porter Instrument Co., Hatfield, Pa.) and a piece of 0.003-in. (i.d.) tubing. Beads diameters were measured using gentle wet sieving. Alginate beads were dissolved in 50 mM sodium hexametaphosphate. […]

The next data set deals with HK44 cells. To be noted: liquid assays; cited from earlier work.
Another data set has as its system S. cerevisiae HER. The data set is described as follows: Sol-gel encapsulated yeast β-galactosidase bioreporter for estrogenic activity. It is filed as cell-based, Saccharomyces cerevisiae. To be noted: over a seven day period; comparable to non-encapsulated positive control. How it is done: Sol-gel encapsulation studies substituting another yeast strain, S. cerevisiae HER, a β-galactosidase bioreporter for estrogenic activity were conducted. Strain HER was successfully incorporated into the sol-gel matrix while retaining responsiveness to the estrogen inducer β-estradiol.

Turning to `N.N.O=S(=O)(O)O` [NH4^+, (NH4)2SO4], the figures for the “NH4^+ detection limit (threefold increase over background bioluminescence)” value in the data set on N. europaea Km^r hao-lux (30 min of exposure) and in the data set with N. europaea Km^r hao-lux (60 min or 90 min of exposure) were 20 µM and 10 µM, respectively.

With `c1ccc2ccccc2c1` [naphthalene], in data set [1], the “adsorption on calcium alginate (in words)” value is on record as “adsorbed linearly”. Besides, the “adsorption isotherm on calcium alginate, dimensionless ratio” value in data set [1] (linear isotherm) came to 8.4. Moreover, in data set [2], the Langmuir equilibrium constant was found to be 8.4 cm^2 s mol^−1, the liquid diffusion coefficient is recorded as 9.0×10^6 cm^2 s^−1 and the solid diffusion coefficient is recorded as 9.0×10^−8 cm^2 s^−1. The “Bioluminescence ± σ” value in the data set on P. fluorescens HK44 (experiment 5b, biomass […] 10^9 cells/mL, sodium salicylate 2.5 mg/L plus naphthalene 8.0, τ 15 min) is recorded as 4.79 ± 3.18 × 10^−1 nA. For the same compound, the “steady-state light response to naphthalene relative to response to salicylate” value with P. fluorescens HK44 (identical conditions, alginate-immobilized HK44) is given as “approximately two orders of magnitudes greater”. Moreover, in the data set on HK44 cells, the “linear luminescence response, lower concentration” value was 0.72 µg/L and the “linear luminescence response, upper concentration” value was 3.25 mg/L.

On to `C[C@]12CC[C@@H]3c4ccc(O)cc4CC[C@H]3[C@@H]1CC[C@@H]2O` [β-estradiol], for which, in the data set with S. cerevisiae HER, the “estrogenic response of sol-gel encapsulated yeast cells (in words)” value is on record as “an estrogenic response was initiated”.

Values taken from patent US6905834B1, “Bioluminescent bioreporter integrated circuit detection methods” (UT-Battelle, LLC, priority 1997, dated 2005).
